One data set concerns HT-29 cells. Kind of data set: Inhibition of HT-29 cell proliferation (CellTiter-Glo cell viability). To be noted: Homo sapiens; HT-29 cells (TP53 R273H mutation), 120 hours culture with compound; read-out: IC50. It is filed as cell-based. The method, boiled down: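 HT-29 cells (TP53 R273H) in McCOY's 5A with 10% FBS, seeded 1000 cells/well overnight, then exposed to compound at 1000 nM–0.015 nM final for 120 hours at 37°C. Viability by CellTiter-Glo luminescence versus 0.3% DMSO control; IC50 by nonlinear regression of log concentration–inhibition.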

For another data set, the system named is OVCAR-3 cells. Kind of data set: Inhibition of OVCAR-3 cell proliferation (CellTiter-Glo cell viability). It is filed as cell-based. The following applies: Homo sapiens; OVCAR-3 cells (TP53 R248Q mutation), 72 hours culture with compound; read-out: IC50. The method in brief: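 OVCAR-3 cells (TP53 R248Q) in RPMI 1640 with 10% FBS were seeded at 1000 cells/well, grown overnight, then exposed to compound (final 1000 nM–0.015 nM) for 72 h at 37°C, 5% CO2. Viability was read by CellTiter-Glo luminescence. IC50 came from nonlinear regression of inhibition relative to 0.3% DMSO control.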
On the technique in general: Cellular ATP, detected with luciferase, serves as a proxy for viable cell number.

A short description of data set [1]: Pharmacokinetic testing in mice after intragastric administration. It is filed as in vivo. To be noted: ICR mice; for area under the curve (in words) / pharmacokinetic properties (in words) / plasma concentration (in words): oral 10 mg/kg, conclusion; for AUC(0-inf) / half-life / Cmax: male, mouse, oral administration 10 mg/kg, plasma; for AUC(0-inf): read-out: Area under the curve AUC0-∞; for half-life: read-out: Half-life period T1/2 (converted); for Cmax: read-out: Plasma concentration Cmax. The protocol: ICR mice were taken as test animals, and intragastrically administered with a control compound AMG650 and compounds 47 and 53 of the present invention, and then drug concentrations in plasma at different moments were determined by an LC/MS/MS method, so as to study pharmacokinetic characteristics of the compounds of the present invention in the mice.
Control compound AMG650, and Compounds 47 and 53.
ICR mice, male, 20-22 g, purchased from Vital River Laboratory Animal Technology Co., Ltd.
A proper amount of to-be-tested compound was weighed, proper amounts of DMA, 30% HS-15 and Saline were added in sequence, and the mixture was well mixed by ultrasonic vortex to prepare 1 mg/mL drug preparations respectively, wherein […]: 30% HS-15: Saline=5: 5: 90 (v: v: v).
ICR mice in each to-be-tested compound injection group (9 mice in each group) were fasted overnight and then intragastrically administered with the compound (PO, an administration dosage of the compound was 10 mg/kg and an administration volume of the compound was 10 mL/kg), and were fed 4 hours after administration.
0.25 hours, 0.5 hours, 1 hour, 2 hours, 4 hours, 6 hours, 8 hours and 24 hours before and after administration, about […] of blood was collected through an orbit, and a complete blood sample was placed in an EDTA-K2-containing anticoagulation tube. The collected blood samples were placed on ice, and plasma was centrifugally separated (centrifugation conditions: 1500 g, 10 minutes). The collected plasma was stored at -40°C - -20°C before analysis.
A content of the to-be-tested compound in the plasma of the mice after intragastric administration was determined by LC-MS/MS.

Experimental findings from patent EP4748837A1, “AROMATIC AMIDE DERIVATIVE, AND PREPARATION METHOD THEREFOR AND USE THEREOF” (Zhejiang Hisun Pharmaceutical Co., Ltd., priority 2023, dated 2025) are described below.

As usually defined, the IC50 is the point on the concentration scale where inhibition reaches its midpoint.

As to `CCS(=O)(=O)Nc1ccc(C(=O)Nc2ccc(-c3ncn(C)n3)c(OCC(F)(F)F)c2)c(N2CCC3(CC2)CC3)c1` [Example 47, 4-(ethylsulfonamido)-N-(4-(1-methyl-1H-1,2,4-triazol-3-yl)-3-(2,2,2-trifluoroethoxy)pheny 1)-2-(6-azaspiro[2.5]octan-6-yl)benzamide], in the data set with HT-29 cells, the IC50 came to 0.54 nM. The IC50 in the data set on OVCAR-3 cells is 5.8 nM. In data set [1], the “area under the curve (in words)” value was “large area under the curve”, the “pharmacokinetic properties (in words)” value is listed as “good pharmacokinetic properties”, the “plasma concentration (in words)” value is listed as “high plasma concentration” and the AUC(0-inf) was found to be 44100 ng·h/mL. In addition, in data set [1], the half-life was 5.45 h and the Cmax amounted to 3500 ng/mL.
Turning to `CCS(=O)(=O)Nc1ccc(C(=O)Nc2ccc(-c3ncccn3)c(OCC(F)(F)F)c2)c(N2CCC3(CC2)CC3)c1` [Example 53, 4-(ethylsulfonamido)-N-(4-(pyrimidin-2-yl)-3-(2,2,2-trifluoroethoxy)phenyl)-2-(6-azaspiro[2.5]octan-6-yl)benzamide], in the data set with HT-29 cells, the IC50 was 6.8 nM. The IC50 in the data set on OVCAR-3 cells came to 9.5 nM. In addition, in data set [1], the “area under the curve (in words)” value is on record as “large area under the curve”, the “pharmacokinetic properties (in words)” value is on record as “good pharmacokinetic properties”, the “plasma concentration (in words)” value is on record as “high plasma concentration” and the AUC(0-inf) was 83700 ng·h/mL. In data set [1], the half-life was 12.1 h and the Cmax came to 5790 ng/mL.
